Test results published in patent publication US8153397B2 (priority 1993, dated 2012).

Molecular target: rBoNT/A LC (Clostridium botulinum, UniProt P0DPI0)
Assay type: biochemical

rBoNT/A LC, sequence (P0DPI0 3-448, added parts left off): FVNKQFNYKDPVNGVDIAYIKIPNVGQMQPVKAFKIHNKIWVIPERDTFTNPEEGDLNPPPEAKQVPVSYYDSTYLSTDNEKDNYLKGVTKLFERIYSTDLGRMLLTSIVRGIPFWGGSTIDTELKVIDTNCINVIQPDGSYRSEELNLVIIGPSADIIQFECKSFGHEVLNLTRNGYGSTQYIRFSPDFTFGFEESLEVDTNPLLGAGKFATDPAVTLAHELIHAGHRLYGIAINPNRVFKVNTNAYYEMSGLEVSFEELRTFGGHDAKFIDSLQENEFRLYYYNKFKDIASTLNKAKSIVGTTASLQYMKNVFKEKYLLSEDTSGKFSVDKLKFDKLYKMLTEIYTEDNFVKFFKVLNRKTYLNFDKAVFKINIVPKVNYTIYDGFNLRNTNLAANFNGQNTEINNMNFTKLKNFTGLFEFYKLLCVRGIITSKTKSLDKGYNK

Row | Compound | % Activity [%] | effect on activity of the rBoNT/A LC | stimulation of activity
1 | [Ca+2].[Cl-].[Cl-] [CaCl2] | 75 | – | –
2 | O=S(=O)([O-])[O-].[Cu+2] [CuSO4] | 95 | – | –
3 | O[C@H](CS)[C@@H](O)CS [Dithioerythreitol] | 60 | inhibited the activity to various extents | –
4 | O[C@H](CS)[C@H](O)CS [Dithiothreitol] | 45 | significantly inhibited | –
5 | O=C(O)CN(CCN(CC(=O)O)CC(=O)O)CC(=O)O [EDTA] | 00 | completely inhibited | –
6 | [Cl][Fe][Cl] [FeCl2] | 35 | – | –
7 | N[C@@H](CCC(=O)N[C@@H](CS)C(=O)NCC(=O)O)C(=O)O [Glutathione, reduced] | 75 | inhibited the activity to various extents | –
8 | NC(=O)CI [Iodoacetamide] | 80 | – | –
9 | N[C@@H](CS)C(=O)O [L-Cysteine] | 20 | inhibited the activity to various extents | –
10 | [Cl][Hg][Cl] [Mercuric chloride] | 00 | completely abolished | –
11 | [Cl-].[Cl-].[Mg+2] [MgCl2] | 90 | – | –
12 | [Cl][Mn][Cl] [MnCl2] | 40 | inhibited the LC reaction to various extents | –
13 | O=S(=O)([O-])[O-].[Ni+2] [NiSO4] | 55 | inhibited the LC reaction to various extents | –
14 | N[C@@H](CCC(=O)N[C@@H](CSN=O)C(=O)NCC(=O)O)C(=O)O [S-Nitrosoglutathione] | 55 | – | –
15 | [Cl-].[Cl-].[Zn+2] [ZnCl2] | – | – | 5%-10%
16 | O=C(O)c1cc[c]([Hg][Cl])cc1 [p-C1-Mercuribenzoate] | 00 | completely abolished | –
17 | OCCS [β-Mercaptoethanol] | 120 | stimulated the activity | –
18 | CoCl2 | 90 | – | –
